{"source": "patent US11213494B2", "about": "(priority 2016, dated 2022)", "key": {"[1]": {"test_system": "RTT mice (Mecp2Jae females)", "assay": "Intermittent very low dose ketamine regimen with plethysmography", "format": "in vivo", "conditions": "3 mg/kg once every 3 days for two weeks, measured 24 hours after the last injection", "protocol": "FIG. 14 illustrates a very low dose ketamine (3 mg/kg) dosing regimen for the treatment of RTT in miceMecp2Jae OC females treated once every 72 hours for two weeks (saline or Ketamine 3 mg/kg) with plethysmography measurement 24 hours after the last injection.\nThis Example evaluated a ketamine dosing regimen for the treatment of Rett syndrome. […] These effects are consistent with the ability of ketamine to increase activity in cortical pyramidal cells by selectively inhibiting cortical inhibitory interneurons."}, "[2]": {"test_system": "Fos expression in the forebrain (piriform cortex)", "assay": "Fos immunostaining 90 min after ketamine injection, count of Fos-positive cells", "format": "in vivo, mice", "conditions": "for number of Fos-positive cells in the piriform cortex: 90 min after injection", "quoted_text": "Three- and 6-week-old male mice, or 11-week-old female mice, were deeply anesthetized by inhalation of isoflurane and perfused transcardially with PBS followed by ice-cold 4% paraformaldehyde in 0.1Mphosphate buffer, pH7.4, within 10 min. […] Brains were postfixed in 4% paraformaldehyde for 2.5 h, cryoprotected in 25% sucrose overnight, then frozen in 2-methylbutane at −45° C. and stored at −80° C. Coronal sections were cut at 40 μm with a cryostat microtome (Jung Frigocut 2800 N) and stored in PBS at 4° C.\nFree-floating 40 μm sections were processed for Fos immunostaining by blocking with 10% goat serum in dilution buffer (PBS, BSA, 0.3% Triton X-100) for 1.5 h and then incubated overnight at room temperature (20±2 h) in rabbit polyclonal anti-c-Fos primary antibody (1:3000, Calbiochem) in dilution buffer plus 10% goat serum. After sequential rinse steps in dilution buffer and PBS, sections were incubated in biotinylated goat anti-rabbit IgG secondary antibody (1:400, Vector Labs) in dilution buffer plus 15% goat serum for 1 h. After rinsing in PBS, sections were incubated in avidin and biotinylated horseradish peroxidase complex (ABC, 1:150, Vector Labs). Finally, sections were developed using the Sigma Fast diaminobenzidine and urea hydrogen peroxide set, mounted on Super Frost Plus slides and coverslipped using VectaShield (Vector Labs).\nAnimals were administered ketamine (8, 20, or 100 mg/kg, i.p.) or an equivalent volume of saline and then returned to their home cage for 90 min. Subsequently, the animals were deeply anesthetized by inhalation of isoflurane, perfused transcardially, and processed for Fos staining as described above.\nSections were visualized and photographed using an AxioSkop2 microscope (Zeiss) equipped with a Quantifire XI microscope camera (Optronics). Fos positive cells were counted using point by-point analysis with Neurolucida software (MBF Bioscience). Before analysis, the photomicrographs were coded so that the observers were blinded to the genotype. Cells were counted in every third section through the nTS, and in a representative subset of sections through the other brain regions analyzed. All sections were analyzed twice by two independent and blinded observers, and respective counts were averaged. The nTS was sampled at 12 levels through the rostro-caudal extent of the nucleus and the average counts at each level were then added together to estimate the total number of labeled cells per animal. To define genotype effects on Fos expression, G*Power 3 power analysis software was used to determine group sizes."}, "Mecp2 Het mice": {"test_system": "Mecp2 Het mice", "assay": "Prepulse inhibition (PPI) of the acoustic startle response", "format": "in vivo", "conditions": "ketamine 8 mg/kg; for % PPI 73 dB: prepulse 73 dB; for % PPI 76 dB: prepulse 76 dB; for % PPI 82 dB: prepulse 82 dB", "protocol": "Prepulse inhibition (PPI) of the acoustic startle response (ASR) was measured to assess sensorimotor gating function using Med Associates Startle Response recording system. Mice were divided into four groups (Het ketamine, Het vehicle, Wt ketamine, Wt vehicle), and received injections of either ketamine (8 mg/kg) or an equivalent amount of saline immediately before they were placed individually inside a small-sized, nonrestrictive, cubical Plexiglas recording chamber [2.5 inches (L)×2.5 inches (W)×1.75 inches (H)] fixed on an accelerometer platform and allowed to acclimate for 5 min. Subsequently, the mouse was exposed to 4 testing blocks. In the first testing block, the initial startle response amplitude was determined by delivering a 40 ms pulse of 120 dB broadband white noise and recording the maximum startle amplitude (Vmax). A baseline startle response was determined by repeating this recording paradigm for six consecutive trials (with 8-23 s between each stimulus) and calculating the average Vmax measured in those trials. In the second and third testing blocks, the mice were exposed to a series of “pulse-only” or “prepulse-pulse pair” stimuli to determine the effect that a reduced intensity prepulse had on the acoustic startle response. The pulse-only stimulus consisted of an 80 ms stimulus of 120 dB. The prepulse-pulse pair trials were conducted by delivering a single 20 ms prepulse, with an intensity of 73, 76 or 82 dB before an 80 ms stimulus with an intensity of 120 dB. An average delay of 15 s (8-23 s) occurred between each stimulus. Each prepulse-pulse pair trial was repeated 10 times, pulse only trials were repeated 12 times. The Vmax measured from each prepulse-pulse trial was compared with the Vmax measured from the 120 dB pulse-only trials, and a percentage prepulse inhibition (% PPI) was calculated for each prepulse intensity. In the fourth testing block, startle response Vmax was recorded from 6 additional 40 ms pulses of 120 dB broadband white noise (with 8-23 s between each stimulus) and compared with the baseline startle response from the first testing block to eliminate the possibility of habituation to the acoustic stimulus throughout the test."}, "[3]": {"conditions": "in vivo; cited from earlier work"}}}
{"smiles": "CNC1(c2ccccc2Cl)CCCCC1=O", "note": "(stereo not drawn) [ketamine]", "values": [{"measurement": "apneic breathing", "setting": "[1]", "value": "complete elimination"}, {"measurement": "number of Fos-positive cells in the piriform cortex", "setting": "[2]; Null mice, ketamine 20 mg/kg i.p.", "value": "83.2±18.2", "unit": "cells"}, {"measurement": "number of Fos-positive cells in the piriform cortex", "setting": "[2]; Null mice, ketamine 100 mg/kg i.p.", "value": "116.3±26.4", "unit": "cells"}, {"measurement": "number of Fos-positive cells in the piriform cortex", "setting": "[2]; Wt mice, ketamine 100 mg/kg i.p.", "value": "119.3±17.2", "unit": "cells"}, {"measurement": "increase in the number of Fos-positive cells", "setting": "[2]; Wt mice, ketamine 100 mg/kg, piriform cortex", "value": 20, "unit": "%"}, {"measurement": "% PPI 73 dB", "setting": "Mecp2 Het mice; Het mice", "value": "5.3±5.8", "unit": "%"}, {"measurement": "% PPI 76 dB", "setting": "Mecp2 Het mice; Het mice", "value": "17.8±2.9", "unit": "%"}, {"measurement": "% PPI 82 dB", "setting": "Mecp2 Het mice; Het mice", "value": "21.4±6.4", "unit": "%"}, {"measurement": "% PPI 73 dB", "setting": "Mecp2 Het mice; Wt mice", "value": "7.8±4.1", "unit": "%"}, {"measurement": "% PPI 76 dB", "setting": "Mecp2 Het mice; Wt mice", "value": "12.8±4.8", "unit": "%"}, {"measurement": "% PPI 82 dB", "setting": "Mecp2 Het mice; Wt mice", "value": "24.1±5.8", "unit": "%"}, {"measurement": "half-life", "setting": "[3]", "value": "less than 1 hour"}]}
